Test results from article PMC8321398, “The discovery of a novel series of compounds with single-dose efficacy against juvenile and adult Schistosoma species” (PLoS Neglected Tropical Diseases, 2021).
Blank lines part the entries; values can stand above or below the compound they belong to.

Tests used:
[1] = Binding in the assay medium; type: in vitro ADME
From the text: (§1) These early experiments also allowed us to use the PK Tool to predict the dose to use in the mouse efficacy models. As part of the prediction we need to recognise that the measured in vitro potency will be different from that in whole blood. […] They also display high protein binding in plasma, assay media and microsomal stability assays. […] Measurement of binding of LSHTM-3520 in the assay medium gave a free fraction, Fu of 0.0014. An experiment was run using LSHTM-3520 to determine whether the potency shift on varying the plasma protein level in the in vitro assay accords with prediction.

S. mansoni worms = assay: In vitro potency assay with varied FBS level; type: cell-based; details: Schistosoma mansoni
From the text: as §1

[2] = Observation of mice for adverse clinical signs / ill effects; type: in vivo; details: 200 mg/kg single oral dose, one mouse 400 mg/kg
Protocol: Prior to in vivo efficacy experiments, a single animal was given a dose of drug (using the same formulation) that was twice as large as that planned for use in the efficacy experiments and was observed periodically for adverse clinical signs for 24h by trained veterinarians. Adverse clinical signs checked include postural defect, vocalization, oculo-nasal discharge, hypersalivation, change in activity, abnormal gait, respiration and pulse, piloerection, loss of pupillary reflex, eyelid reflex, chromodacryorrhea, reaction to handling, tremor, convulsions, prostration, diarrhoea, cachexia, emaciation. […] In vivo efficacy was assessed in female CD1 mice using methods based on those previously described. Mice were infected subcutaneously with 150 cercariae. Test compounds were suspended in 7% Tween-80 / 3% Ethanol / double distilled water and drug dispersal was facilitated by vortexing and using a sonicating water bath (Formulation “Aqueous”). Alternatively, drugs were first dissolved in DMSO, then diluted with corn oil to give a 1:19 DMSO:corn oil solution/suspension of test compound (Formulation “Corn oil”). […] Worms were recovered by portal perfusion with citrate saline 8–14 days post treatment and counted. Differences between groups relative to the non-drug treated controls were assessed for statistical significance by Student’s unpaired t-test using GraphPad Prism Software. […]

[3] = system: panel of 38 in vitro toxicity targets (receptors, channels, transporters); assay: Broad selectivity panel (Cerep), radioligand receptor binding assays; details: 1uM
Protocol: Selectivity was assessed at Cerep (Celle l’ Evescault, France), as described in the Cerep catalog, against a panel of in vitro radioligand receptor binding assays with 38 different receptors, channels, and transporters selected as targets to avoid for safety reasons (beta 1, beta 2, NMDA, MAO-A, 5-HT1B, CCK1 (CCKA), BZD (central), delta (DOP), A2A, CB1, CB2, D1, D2S, ETA, H1, H2, M1, M2, M3, 5-HT1A, 5-HT2A, 5-HT2B, 5-HT3, GR, AR, V1a, kappa (KOP), mu (MOP), alpha 1A, alpha 2A, Ca2+ channel, Potassium Channel, Kv channel, Na+ channel, N neuronal alpha 4 beta 2, norepinephrine transporter, dopamine transporter, 5-HT transporter). The specific ligand binding to the receptors is defined as the difference between the total binding, and the nonspecific binding determined in the presence of an excess of unlabelled ligand.

in vivo = details: rat
[4] = rat, in vivo

fraction unbound ([1]; bovine, assay medium of the in vitro potency assay, read-out: free fraction, Fu): 0.0014
recovery ([1]; bovine, in vitro potency assay medium with Foetal Bovine Serum, in vitro assay medium): 69.3%
Assay medium %binding ([1]; in vitro assay medium): 99.86%
EC50 (S. mansoni worms; 3% FBS): 8 nM
EC50 (S. mansoni worms; 10% FBS): 24.4 nM
EC50 (S. mansoni worms; 30% FBS): 75 nM
Compound: CC(C)c1nc2cnc(-c3ccc(F)c(C(F)(F)F)c3)cn2c1-c1c(F)cc(O)cc1F [LSHTM-3520]
issues observed with the animals exposed [2]: no issues observed

Compound: Fc1ccc(-c2cn3c(-c4ccc5[nH]ncc5c4F)c(C(F)(F)F)nc3cn2)cc1C(F)(F)C(F)(F)F [LSHTM-3645]
activity against panel of 38 in vitro toxicity targets [3]: no reproduceable activity

AUC(0-inf) (in vivo; iv, 1 mg/kg): 5000 ng·h/mL
Vd (in vivo; iv, 1 mg/kg): 8.8 L/kg
bioavailability (in vivo; po, 10 mg/kg): 67%
Clobs ([4]; iv, 1 mg/kg): 3.33 mL/min/kg
Plasma conc @ 24 h after oral dose ([4]; po, 10 mg/kg, 24 h): 357 ng/mL
Compound: Fc1ccc(-c2cn3c(-c4ccc5[nH]ncc5c4F)c(C(F)(F)F)nc3cn2)cc1C(F)(F)F [LSHTM-3642, 3-(4-fluoro-1H-indazol-5-yl)-6-(4-fluoro-3-(trifluoromethyl)phenyl)-2-(trifluoromethyl)imidazo[1,2-a]pyrazine]
